Calls of active or inactive are those of the source.

This note sets out measurements from ChEMBL document CHEMBL1201862, “PubChem BioAssay data set” (2004).

Assay [1] in a line: control 3'UTR Renilla luciferase suppression, dose response, counter-screen for Shn3 inhibitor project, cell-based, Clone20-Shn3RL, cherry-picked (AID 624133). Format: functional. In general terms: A counterscreen serves to expose hits that act by an unwanted route or on another target.
The nature of assay [2]: inhibitors of control Renilla luciferase reporter, dose response, counter-screen for Shn3 3'UTR targeting project, Clone20-Shn3RL cells, dual-Glo, cherry-pick, set 2 (AID 720724). As to conditions: Dual-Go Shn3RL. Format: functional, cell-based. In general terms: Reporter assays use an easily measured gene product as a stand-in for the process of interest.
A short description of assay [3]: Shn3 3'UTR reporter inhibitors, dose response, cell-based, Clone20 osteoblasts, firefly luciferase, cherry-picked (AID 624132).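 Further: firefly luciferase luminescence from reporter carrying the Shn3 3'UTR in osteoblasts.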 Format: functional.
Assay [4] in a line: reduction of Shn3 3'UTR firefly luciferase signal, dose response, Schnurri-3 inhibitor project, cell-based, Clone20 osteoblasts, cherry-pick, set 2 (AID 720490).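 Further: actives lower the luminescence signal as inhibitors.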 Format: functional.
The nature of assay [5]: HepG2 cell cytotoxicity, dose response, cytotoxicity control for Shn3 inhibitor project, CellTiter-Glo, cherry-picked (AID 624134). Format: functional, cell-based. Background: In ATP-based viability assays light output follows the ATP content of the culture.
The target in assay [6] is FAD-linked sulfhydryl oxidase ALR (Homo sapiens, UniProt P55789). The assay is described as follows: inhibitors of human ALR sulfhydryl oxidase, dose response, biochemical, H2O2 detection, luminescence, cherry-pick (AID 493248).
Chain of FAD-linked sulfhydryl oxidase ALR (P55789 whole entry): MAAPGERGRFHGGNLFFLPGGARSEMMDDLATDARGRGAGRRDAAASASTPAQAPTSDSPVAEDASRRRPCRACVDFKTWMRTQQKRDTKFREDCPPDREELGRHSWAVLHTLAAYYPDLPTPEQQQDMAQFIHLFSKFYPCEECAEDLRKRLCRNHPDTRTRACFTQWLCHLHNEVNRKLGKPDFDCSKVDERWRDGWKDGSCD
The target of assay [7] is 5-hydroxytryptamine receptor 2A (Mus musculus, UniProt P35363). Format: functional, cell-based.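 Further: CHO-K1 cells with tagged receptor and beta-arrestin; agonist potency measured as compound-induced activation of the receptor.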
Chain of 5-hydroxytryptamine receptor 2A (P35363 whole entry): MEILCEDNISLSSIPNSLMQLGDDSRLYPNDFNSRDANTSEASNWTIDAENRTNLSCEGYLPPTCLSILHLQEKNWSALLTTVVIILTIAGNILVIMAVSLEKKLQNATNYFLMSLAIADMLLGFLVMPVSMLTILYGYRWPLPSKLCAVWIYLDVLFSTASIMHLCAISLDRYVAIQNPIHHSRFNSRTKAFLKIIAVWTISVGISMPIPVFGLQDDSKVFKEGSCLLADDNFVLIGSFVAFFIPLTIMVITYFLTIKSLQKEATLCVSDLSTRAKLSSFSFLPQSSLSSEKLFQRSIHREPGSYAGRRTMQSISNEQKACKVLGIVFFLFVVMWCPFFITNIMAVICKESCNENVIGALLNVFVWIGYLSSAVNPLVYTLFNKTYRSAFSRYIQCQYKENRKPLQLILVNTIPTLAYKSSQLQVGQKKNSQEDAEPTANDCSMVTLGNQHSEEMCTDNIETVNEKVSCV
The target in a further assay is Mu-type opioid receptor (Homo sapiens, UniProt P35372). Format: functional, cell-based.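 Further: U2OS cells with beta-arrestin recruitment to OPRM1 by beta-gal complementation.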
Chain of Mu-type opioid receptor (P35372 whole entry): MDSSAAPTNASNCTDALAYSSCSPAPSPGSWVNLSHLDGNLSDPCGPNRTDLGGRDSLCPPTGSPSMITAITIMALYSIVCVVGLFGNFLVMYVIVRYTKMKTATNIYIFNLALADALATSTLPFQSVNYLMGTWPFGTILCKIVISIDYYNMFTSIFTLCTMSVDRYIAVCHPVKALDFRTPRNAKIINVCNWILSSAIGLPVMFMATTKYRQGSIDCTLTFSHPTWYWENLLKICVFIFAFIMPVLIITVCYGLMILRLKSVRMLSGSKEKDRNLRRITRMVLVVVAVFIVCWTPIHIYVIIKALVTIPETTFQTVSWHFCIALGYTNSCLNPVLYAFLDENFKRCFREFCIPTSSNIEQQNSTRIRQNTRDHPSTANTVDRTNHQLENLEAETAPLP
The target in another assay is Beta Lactamase (Pseudomonas aeruginosa, UniProt Q932Y6). Kind of assay: beta-lactamase reporter inhibitor potency, dose response, artefact control for NOD2-RIPK2 interaction inhibitor project, BLA reporter cells, FRET fluorescence (AID 651552). Format: functional, cell-based.
Chain of Beta Lactamase (Q932Y6 whole entry, the tested form may be a part): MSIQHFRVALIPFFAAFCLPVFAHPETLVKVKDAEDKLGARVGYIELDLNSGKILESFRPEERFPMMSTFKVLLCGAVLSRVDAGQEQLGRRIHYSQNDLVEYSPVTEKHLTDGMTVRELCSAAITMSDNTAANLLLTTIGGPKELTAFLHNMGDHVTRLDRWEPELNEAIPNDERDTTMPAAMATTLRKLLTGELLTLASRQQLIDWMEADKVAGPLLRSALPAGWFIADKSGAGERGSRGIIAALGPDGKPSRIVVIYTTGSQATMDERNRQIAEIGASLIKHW
The nature of assay [8]: Fluorescence-based cell-based high throughput dose response assay for inhibitors of the interaction of nucleotide-binding oligomerization domain containing 2 (NOD2) and the receptor-interacting serine-threonine kinase 2 (RIPK2). Format: functional. The following applies: Homo sapiens.
The target of another assay is Paired box protein Pax-8 (Homo sapiens, UniProt Q06710). Kind of assay: inhibitors of PAX8-driven TPO luciferase reporter, dose response, RMG-I cells, cherry-pick (AID 687027).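 Further: luciferase reporter driven by Pax8 target thyroperoxidase promoter measured by SteadyGlo luminescence.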 Format: functional, cell-based.
Chain of Paired box protein Pax-8 (Q06710 whole entry): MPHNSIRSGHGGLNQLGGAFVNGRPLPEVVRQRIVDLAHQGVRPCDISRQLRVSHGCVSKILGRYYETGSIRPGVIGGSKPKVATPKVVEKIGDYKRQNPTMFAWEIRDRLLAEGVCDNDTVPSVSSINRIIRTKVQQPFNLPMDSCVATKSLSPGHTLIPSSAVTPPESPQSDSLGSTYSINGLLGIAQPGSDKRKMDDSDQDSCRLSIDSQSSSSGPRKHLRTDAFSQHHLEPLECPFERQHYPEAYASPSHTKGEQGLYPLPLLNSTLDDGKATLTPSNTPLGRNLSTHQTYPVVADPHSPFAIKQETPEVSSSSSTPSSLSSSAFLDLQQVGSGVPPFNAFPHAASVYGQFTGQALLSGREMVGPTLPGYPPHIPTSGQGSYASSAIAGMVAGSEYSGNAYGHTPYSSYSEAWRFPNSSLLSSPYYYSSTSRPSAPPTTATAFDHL
Assay [9] is described as follows: non-specific cell cytotoxicity, dose response, cytotoxicity control for PAX8 inhibitor project, plate reader, dry powder samples (AID 743021). Format: functional, cell-based.
Assay [10] can be described thus: Luminescence Cell-Based Dose Retest to Confirm Inhibitors of Cancer Stem Cells. [Related pubchem assays (depositor defined):AID2717, AID2721]. Format: functional. The following applies: Homo sapiens.
Assay [11] can be described thus: inhibitors of firefly luciferase expression or activity, dose response, H4 neuroglioma cells, luminescence (AID 1990). Format: functional, cell-based.
The nature of assay [12]: inhibitors of SNCA 5'UTR-driven reporter translation, confirmation, H4 neuroglioma cells, luminescence (AID 1988). Format: functional, cell-based.
A short description of assay [13]: HEK293T cytotoxicity, dose response, cytotoxicity control for miR-122 modulator project, cell-based, inhibitor set, cherry-pick, set 2 (AID 720697). Format: functional.
Assay [14] is described as follows: miR-122 activators in hepatoma reporter cells, dose response, cell-based, Huh7 psiCHECK-miR122, Renilla luciferase, cherry-picked (AID 651956).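 Further: huh7 hepatoma cells stably carrying a psiCHECK-2 miR-122 sensor plasmid; renilla luciferase signal reporting endogenous miR-122 activity after 48 h compound exposure.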 Format: functional.
Assay [15] is described as follows: Luminescence Cell-Based Dose Response HTS to Identify Inhibitors of 5'UTR Stem-Loop Driven Prion Protein mRNA Translation in H4 Neuroglioblastoma Cells. [Related pubchem assays: 1827 (Project Summary), 1813 (Primary HTS)]. Format: functional.
Assay [16] in a line: Counterscreen for antagonists of the human trace amine associated receptor 1 (hTAAR1): Fluorescence-based cell-based high throughput dose response assay to identify nonselective Ga16 antagonists. Format: functional.
The nature of assay [17]: Counterscreen for […] of the human trace amine associated receptor 1 (TAAR1): Fluorescence-based cell-based high throughput dose response assay to identify nonselective Ga16 agonists. Format: functional.
Assay [18] deals with Streptococcus sp. 'group A'. Kind of assay: growth inhibition of control SK(-) GAS strain, dose response, counter-screen for streptokinase expression inhibitor project, luminescence, kanamycin, BacTiterGlo, confirmation (AID 1900). Format: functional, organism-based.
Another assay relates to Streptococcus. The assay is described as follows: Group A Streptococcus viability loss, dose response, counter-screen for streptokinase expression inhibitor project, luminescence, BacTiterGlo (AID 1915).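 Further: potency for reduction of bacterial viability or growth.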 Format: functional, organism-based.
The nature of assay [19]: human group III sPLA2 inhibitors, dose response, biochemical, QFRET, IC50 (AID 743457).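 Further: green fluorescence rise as the enzyme cleaves BODIPY PC-A2 in liposomes; potency for inhibition of the enzyme.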
Another assay concerns INS1. Kind of assay: beta cell apoptosis inhibitors, cytokine rescue, dose response, luminescence, retest (AID 449756).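 Further: cell death triggered by IL-1 beta plus TNF-alpha plus IFN-gamma mixture; protective hits raise ATP signal compared with cytokine alone wells.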 Format: functional, cell-based. The following applies: Rattus norvegicus.
Assay [20] deals with DNA repair and recombination protein RAD54-like (Homo sapiens, UniProt Q92698). Kind of assay: inhibitors of human RAD54 branch migration, confirmation, biochemical, fluorescence, cherry-picked samples, dose series (AID 651657). Format: functional.
Chain of DNA repair and recombination protein RAD54-like (Q92698 whole entry): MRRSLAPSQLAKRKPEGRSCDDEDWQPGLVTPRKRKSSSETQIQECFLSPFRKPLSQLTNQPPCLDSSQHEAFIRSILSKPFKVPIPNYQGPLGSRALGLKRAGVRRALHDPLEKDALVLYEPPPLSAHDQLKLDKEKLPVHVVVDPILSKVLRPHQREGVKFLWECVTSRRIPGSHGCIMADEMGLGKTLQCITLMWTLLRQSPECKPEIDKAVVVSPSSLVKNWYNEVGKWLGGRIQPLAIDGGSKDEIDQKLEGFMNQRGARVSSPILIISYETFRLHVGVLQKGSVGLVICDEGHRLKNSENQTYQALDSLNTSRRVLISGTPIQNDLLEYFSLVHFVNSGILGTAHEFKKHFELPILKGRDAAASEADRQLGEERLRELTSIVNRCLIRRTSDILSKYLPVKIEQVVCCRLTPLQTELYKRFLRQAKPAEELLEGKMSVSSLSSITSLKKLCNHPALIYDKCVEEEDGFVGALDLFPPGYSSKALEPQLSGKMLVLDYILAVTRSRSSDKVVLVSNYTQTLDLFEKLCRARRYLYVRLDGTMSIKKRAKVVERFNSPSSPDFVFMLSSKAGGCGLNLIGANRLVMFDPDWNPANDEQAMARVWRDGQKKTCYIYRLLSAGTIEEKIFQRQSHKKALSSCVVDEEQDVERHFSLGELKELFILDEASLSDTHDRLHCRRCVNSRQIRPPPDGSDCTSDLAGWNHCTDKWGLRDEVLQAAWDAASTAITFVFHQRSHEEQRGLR
Assay [21] is described as follows: cytotoxicity toward DRD oncogenic fibroblasts, dose response, cell-based, non-viral oncogenic, luminescence (AID 1934). Format: functional. As to conditions: Homo sapiens.
For assay [22], the system named is BJ. Kind of assay: cytotoxicity toward BJ-TERT-LT-ST fibroblasts, dose response, cell-based, RAS-independent, luminescence (AID 1935).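 Further: BJ fibroblasts immortalized with TERT plus LT and ST oncogenes.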 The following applies: Homo sapiens. Format: functional.
Assay [23] relates to BJ. Kind of assay: cells. The following applies: Homo sapiens. Format: functional, cell-based.
Assay [24] has as its system BJ. The assay is described as follows: cytotoxicity toward BJ-TERT fibroblasts, dose response, cell-based, RAS-independent, luminescence (AID 1933). Format: functional. The following applies: Homo sapiens.
For assay [25], the target named is Aryl hydrocarbon receptor (Homo sapiens, UniProt P35869). Kind of assay: Luminescence-based cell-based high throughput dose response assay for activators of the Aryl Hydrocarbon Receptor (AHR). [Related pubchem assays: 2796 (Primary screen (AHR activators in singlicate)), 2845 (Confirmation screen (AHR activators in triplicate)), 434939 (Counterscreen (PXR activators in triplicate)), 2804 (Summary (AHR activators))]. Format: ADME.
Chain of Aryl hydrocarbon receptor (P35869 whole entry): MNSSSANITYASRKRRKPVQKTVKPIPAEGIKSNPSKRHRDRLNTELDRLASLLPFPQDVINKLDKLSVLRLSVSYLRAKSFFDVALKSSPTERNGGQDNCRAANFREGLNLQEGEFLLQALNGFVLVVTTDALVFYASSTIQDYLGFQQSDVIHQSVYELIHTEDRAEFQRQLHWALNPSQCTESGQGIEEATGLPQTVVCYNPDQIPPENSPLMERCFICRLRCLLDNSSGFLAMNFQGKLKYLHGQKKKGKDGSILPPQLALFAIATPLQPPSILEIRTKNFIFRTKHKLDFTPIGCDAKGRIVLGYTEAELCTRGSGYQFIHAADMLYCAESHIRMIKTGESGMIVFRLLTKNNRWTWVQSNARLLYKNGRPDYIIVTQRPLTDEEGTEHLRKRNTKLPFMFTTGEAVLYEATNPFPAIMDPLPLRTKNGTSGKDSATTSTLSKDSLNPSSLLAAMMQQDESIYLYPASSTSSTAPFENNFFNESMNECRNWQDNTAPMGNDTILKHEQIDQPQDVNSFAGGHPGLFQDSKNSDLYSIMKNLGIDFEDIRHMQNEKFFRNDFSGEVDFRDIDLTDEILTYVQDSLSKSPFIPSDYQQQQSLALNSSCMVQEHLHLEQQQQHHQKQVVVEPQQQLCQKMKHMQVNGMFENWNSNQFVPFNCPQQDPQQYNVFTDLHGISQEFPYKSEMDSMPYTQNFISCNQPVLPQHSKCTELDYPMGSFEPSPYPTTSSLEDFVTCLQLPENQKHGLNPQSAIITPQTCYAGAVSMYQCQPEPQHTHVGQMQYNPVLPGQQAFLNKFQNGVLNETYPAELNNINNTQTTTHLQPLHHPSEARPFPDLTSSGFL

Assay [26] can be described thus: cells. Format: functional, cell-based.
A short description of assay [27]: cells. Format: functional, cell-based. The source holds these as a separate data set.
Assay [28] addresses SWI/SNF-related matrix-associated actin-dependent regulator of chromatin subfamily A member 2 (Homo sapiens, UniProt P51531). Kind of assay: Luminescence-based cell-based high throughput dose response assay to identify activators of the function of SWI/SNF related, matrix associated, actin dependent regulator of chromatin, subfamily a, member 2 (SMARCA2, BRM). Format: functional.

Assay [29] in a line: Counterscreen for activators of the function of SWI/SNF related, matrix associated, actin dependent regulator of chromatin, subfamily a, member 2 (SMARCA2, BRM): Luminescence-based cell-based high throughput dose response assay to identify non-selective compounds using the VP16 reporter assay. Format: functional.
Another assay has as its target Protein Wnt-3a (Mus musculus, UniProt P27467). Kind of assay: SAR analysis of small molecule antagonists of Gli-SUFU in a Wnt3a luminescent reporter assay. Format: functional.
Assay [30] deals with T1, Sentrin-specific protease 1 (Homo sapiens, UniProt Q9P0U3). The assay is described as follows: potency of human SENP1 inhibitors, dose response, biochemical, kinetic FRET (AID 651697). The following applies: read-out: IC50_Mean. Format: functional.
T1 sequence (Q9P0U3 whole entry): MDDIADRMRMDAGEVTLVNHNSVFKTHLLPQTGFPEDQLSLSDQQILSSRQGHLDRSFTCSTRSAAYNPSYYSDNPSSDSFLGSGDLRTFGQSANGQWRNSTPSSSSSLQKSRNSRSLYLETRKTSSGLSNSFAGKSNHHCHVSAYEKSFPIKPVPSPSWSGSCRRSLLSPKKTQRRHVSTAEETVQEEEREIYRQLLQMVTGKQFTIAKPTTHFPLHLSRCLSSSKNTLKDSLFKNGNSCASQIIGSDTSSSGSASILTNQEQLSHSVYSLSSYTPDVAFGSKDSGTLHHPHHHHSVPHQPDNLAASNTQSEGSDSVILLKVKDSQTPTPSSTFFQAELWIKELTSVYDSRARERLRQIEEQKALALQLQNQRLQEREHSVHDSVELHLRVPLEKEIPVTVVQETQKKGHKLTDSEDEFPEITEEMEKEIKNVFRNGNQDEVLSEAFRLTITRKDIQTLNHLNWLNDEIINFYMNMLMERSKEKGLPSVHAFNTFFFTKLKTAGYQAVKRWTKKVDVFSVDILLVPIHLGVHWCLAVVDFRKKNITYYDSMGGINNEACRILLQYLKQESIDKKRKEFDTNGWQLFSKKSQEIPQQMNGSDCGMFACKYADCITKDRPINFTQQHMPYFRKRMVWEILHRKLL
The target of a further assay is Melanocortin receptor 4 (Homo sapiens, UniProt P32245). Format: functional, cell-based.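 Further: Cell-based assay with luminescence read-out, confirmatory dose-response testing for agonist activity of biased ligands at MC4R; human U2OS cells with tagged receptor and beta-arrestin; potency of agonists that increase receptor coupling to beta-arrestin.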
Chain of Melanocortin receptor 4 (P32245 whole entry, the tested form may be a part): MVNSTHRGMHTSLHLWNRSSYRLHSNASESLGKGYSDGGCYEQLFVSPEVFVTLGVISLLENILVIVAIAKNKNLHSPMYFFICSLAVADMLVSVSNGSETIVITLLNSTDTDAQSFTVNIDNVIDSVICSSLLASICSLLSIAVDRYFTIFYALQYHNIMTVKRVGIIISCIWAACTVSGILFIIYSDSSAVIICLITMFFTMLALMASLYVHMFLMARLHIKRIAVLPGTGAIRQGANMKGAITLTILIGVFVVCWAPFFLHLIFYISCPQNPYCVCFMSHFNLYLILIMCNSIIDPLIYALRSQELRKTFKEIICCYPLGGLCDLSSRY
The target of assay [31] is T1, Sentrin-specific protease 1. Kind of assay: Dose response confirmation of small molecule inhibitors of the catalytic domain of the SUMO protease, SENP1 in a FRET assay. Format: functional. As to conditions: read-out: IC50_Mean.

Chain of Protein Wnt-3a (P27467 whole entry): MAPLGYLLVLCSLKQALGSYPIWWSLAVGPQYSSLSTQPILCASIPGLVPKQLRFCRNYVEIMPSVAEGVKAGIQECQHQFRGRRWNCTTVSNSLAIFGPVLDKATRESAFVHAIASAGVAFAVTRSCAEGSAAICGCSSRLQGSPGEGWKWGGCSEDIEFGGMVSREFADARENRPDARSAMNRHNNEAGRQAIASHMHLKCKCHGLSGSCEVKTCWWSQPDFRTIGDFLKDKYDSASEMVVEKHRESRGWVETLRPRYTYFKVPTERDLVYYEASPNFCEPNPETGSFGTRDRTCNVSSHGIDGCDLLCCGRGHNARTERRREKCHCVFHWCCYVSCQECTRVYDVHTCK

In general, AC50 refers to the concentration giving half of the maximal activity seen. In the case of `Cc1ccc2nc(NC(=O)C3CCN(S(=O)(=O)c4ccc5c(c4)oc(=O)n5C)CC3)sc2c1`, the AC50 in [1] is 11.1 µM (active); in assay [2] it was 29.1 µM (active); in [3] it was 3.35 µM (active); in assay [4], 7.23 µM (active); in assay [5] it was 54.7 µM (active).

Broadly, the EC50 is the concentration needed to bring the measured effect to its halfway point. As to `COc1ccccc1C(=O)NCCN1CCN(c2ccccc2)CC1`, the half-maximal activity concentration (AC50) in assay [6] is 3.86 µM (active). Further, the results for the EC50 (in assay [7]; at Mu-type opioid receptor) were 0.662 µM (active) and 92.5 µM (inactive), respectively.

As to `CC(C)(C)[C@H](N)C(=O)N[C@H]1CCC2C3CC=C4C[C@@H](O)CC[C@]4(C)C3CC[C@@]21C` (stereo partly drawn), the results for the IC50 (on Beta Lactamase; in assay [8]) were 19.5 µM (inactive) and 17.7 µM (inactive), respectively. Besides, the AC50 is 9.31 µM (active) at Paired box protein Pax-8, 40.7 µM (active) in assay [9] and 3.67 µM (active) in assay [10].

For the molecule `Cc1oc(-c2ccc(Cl)cc2)nc1CN1CCCC(C(=O)NCc2ccco2)C1` (stereo not drawn), the concentration for a half-maximal effect (EC50) in [11], in assay [12] and in assay [15] was > 120 µM (not active) each time. Moreover, the AC50 in [13] was 1.3 µM (active); in [14] it was 6.37 µM (active).

Turning to `CCCOC(=O)c1c(-c2ccc(OC)cc2)oc2ccc(-c3ccc(OC)nc3)cc12`, the IC50 in assay [16] was > 29.9 µM (inactive). The EC50 in assay [17] is > 29.9 µM (inactive).

For `O=C(NNC(=S)NC(=O)c1cccs1)c1ccc(NC(=O)c2ccccc2)cc1`, the 50% effective concentration (EC50) is 0.479 µM (active) in assay [18] and 6.3 µM (active) in the assay on Streptococcus. Further, in assay [19], the IC50 is 51.9 µM (inactive).

In the case of `Nc1cc2c3c(cccc3c1)C(=O)N(CCN1CCCC1)C2=O`, the AC50 in the assay with INS1 is 3.43 µM (active); in assay [20], 5.82 µM (active). The EC50 was 19.5 µM (active) in [21]; > 150 µM (inconclusive) with BJ [22]; 20.6 µM (active) in the assay with BJ [23]; 13.2 µM (active) in the assay with BJ [24]; 0.286 µM (active) in [25]; > 350 µM (not active) in “cells [26]”. Besides, the EC50 in the assay “cells [27]” is > 350 µM (not active); in [28], > 10.1 µM (inactive); in assay [29], > 91.2 µM (inactive).

Regarding `CN(C)c1cc(NC(=O)c2cccc(F)c2)ncn1`, at Protein Wnt-3a, the IC50 was > 21.8 µM (inactive).

As to `CCOc1ccc(Cn2c3ccc(OC)cc3c3nc4ccccc4nc32)cc1OC`, the IC50 in [30] was 12.8 µM (active); in assay [31] it was 6.92 µM (active). Moreover, the EC50 at Melanocortin receptor 4 was > 89.2 µM (inactive).
